Results on one molecule are retold here after ChEMBL document CHEMBL3232736, “Antiproliferative activities of halogenated thieno[3,2-d]pyrimidines” (Bioorg Med Chem, 2014).

A word on the IC50: it is the concentration that gives 50% inhibition.

One data set has as its system HEL. Nature of the data set: Cytotoxicity against human HEL cells assessed as reduction in cell number by cell counting assay. The class given is functional.
Data set [1] relates to HeLa. Kind of data set: Cytotoxicity against human HeLa cells assessed as reduction in cell number. It is filed as functional.
For data set [2], the system named is L1210. Kind of data set: Induction of apoptosis in mouse L1210 cells assessed as early apoptosis at 5.4 uM after 48 hrs by Annexin-V/7-AAD staining-based flow cytometric analysis (rvb = 3.36%). It is filed as functional. (In flow cytometry, cells or beads pass a laser one at a time.)
Data set [3] concerns L1210. Kind of data set: Induction of apoptosis in mouse L1210 cells assessed as late apoptosis at 5.4 uM after 48 hrs by Annexin-V/7-AAD staining-based flow cytometric analysis (reference value: 4.46%). The class given is functional.
The next data set relates to Bacillus spizizenii. Nature of the data set: Antibacterial activity against Bacillus subtilis ATCC 6633 assessed as growth inhibition at 100 uM after 16 to 20 hrs by microbroth dilution method. It is filed as functional. For orientation: Broth dilution looks for growth in wells or tubes with falling amounts of substance.
For a further data set, the system named is Candida albicans. Nature of the data set: Antifungal activity against Candida albicans ATCC 10231 assessed as growth inhibition after 16 to 20 hrs by microbroth dilution method. The class given is functional.
The test system of data set [4] is Cryptococcus neoformans. Nature of the data set: Antifungal activity against Cryptococcus neoformans JEC20 assessed as growth inhibition after 48 hrs by microbroth dilution method. The class given is functional. The note with it: JEC20, 48 h.
In the next data set the test system is Escherichia coli. Nature of the data set: Antibacterial activity against Escherichia coli ATCC 25922 assessed as growth inhibition at 100 uM after 16 to 20 hrs by microbroth dilution method. It is filed as functional, organism-based.
The next data set concerns Vero. Nature of the data set: Cytotoxicity against African green monkey Vero cells assessed as reduction in cell number. It is filed as cell-based. The note with it: chlorocebus sabaeus.
Data set [5] concerns L1210. Kind of data set: Induction of apoptosis in mouse L1210 cells assessed as viable cell level at 5.4 uM after 48 hrs by Annexin-V/7-AAD staining-based flow cytometric analysis (reference value: 83%). It is filed as functional.
Data set [6] has as its system HeLa. Nature of the data set: Cytotoxicity against human HeLa cells assessed as reduction in cell number after 72 hrs by cell counting assay. The class given is functional, cell-based.
Data set [7] relates to L1210. Nature of the data set: Induction of apoptosis in mouse L1210 cells assessed as necrotic cell level at 5.4 uM after 48 hrs by Annexin-V/7-AAD staining-based flow cytometric analysis (reference value: 8.13%). It is filed as functional.
A further data set has as its system Pseudomonas aeruginosa. Nature of the data set: Antibacterial activity against Pseudomonas aeruginosa ATCC 27853 assessed as growth inhibition at 100 uM after 16 to 20 hrs by microbroth dilution method. It is filed as functional, organism-based.
Another data set has as its system Enterococcus faecalis. Kind of data set: Antibacterial activity against vancomycin-resistant Enterococcus faecalis ATCC 51299 assessed as growth inhibition at 100 uM after 16 to 20 hrs by microbroth dilution method. It is filed as functional, organism-based.
The subject of the next data set is Staphylococcus aureus. Nature of the data set: Antibacterial activity against methicillin-resistant Staphylococcus aureus subsp. aureus ATCC 43300 assessed as growth inhibition at 100 uM after 16 to 20 hrs by microbroth dilution method. It is filed as functional, organism-based.
In data set [8] the test system is Cryptococcus neoformans. Kind of data set: Antifungal activity against Cryptococcus neoformans B4546 assessed as growth inhibition after 48 hrs by microbroth dilution method. The class given is functional. To be noted: B4546, 48 h.
The subject of data set [9] is L1210. Kind of data set: Cytotoxicity against mouse L1210 cells assessed as reduction in cell viability after 48 hrs by MTT assay. It is filed as functional, cell-based. The note with it: L1210, 48 h. For orientation: Tetrazolium dyes change colour on reduction, which living cells bring about.
Another data set relates to CCRF-CEM. Nature of the data set: Cytotoxicity against human CCRF-CEM cells assessed as reduction in cell number after 72 hrs by cell counting assay. The class given is functional, cell-based.
The test system of data set [10] is L1210. Nature of the data set: Cell cycle arrest in mouse L1210 cells at 5.4 uM after 24 to 48 hrs by propidium iodide staining-based flow cytometric analysis. The class given is functional.
Data set [11] has as its system L1210. Kind of data set: Cytotoxicity against mouse L1210 cells assessed as reduction in cell number after 48 hrs by cell counting assay. It is filed as functional, cell-based. The note with it: L1210, 48 h.

≈ marks a conversion by molar mass, not a printed value. Calls of active or inactive are those of the source. The rule behind the calls is not given here.

Consider `Clc1nc(Cl)c2scc(Br)c2n1`, for which the MIC99 with HEL, with HeLa [1] and in the data set on Vero was 20 µM (≈ 5.68 µg/mL) throughout. Besides, the Activity was found to be 33.3% in the data set with L1210 [2], 21.8% with L1210 [3], 43.1% in the data set on L1210 [5] and 1.84% in the data set with L1210 [7]. Besides, the inhibition result in the data set on Bacillus spizizenii, in the data set on Escherichia coli, in the data set with Pseudomonas aeruginosa, with Enterococcus faecalis and with Staphylococcus aureus was “inactive” each time. The MIC95 with Candida albicans was determined as 10.7 µM (≈ 3.04 µg/mL); in the data set on Cryptococcus neoformans [4], 5.8 µM (≈ 1.65 µg/mL); with Cryptococcus neoformans [8], 7 µM (≈ 1.99 µg/mL). Besides, the concentration for half-maximal inhibition (IC50) stood at 4.3 µM in the data set with HeLa [6], 5.4 µM in the data set on L1210 [9], 14 µM with CCRF-CEM and 5.4 µM with L1210 [11]. For the same molecule, the result with L1210 [10] was inactive.
